Laboratory results as given in US10925851B2 (Regents of the University of Minnesota, priority 2018, dated 2021).
“And” between values parts separate entries of the source, which are not always exact repeats. Equal entries are not always repeated. Where two headings read alike, the source gives them in different places.

Tests used:
mice [1] = assay: Combination therapy with morphine, isobolographic analysis in tail-flick assay; settings: for Dose Reduction Index (DRI) Morphine: in combination with tosedostat, 50% efficacy; for ED50: Mus musculus, sc
Aminopeptidase N (APN) = molecular target: T1, Aminopeptidase N (APN) (Homo sapiens, UniProt P15144); assay: Aminopeptidase N enzyme assay (Ala-AMC substrate, fluorescence); type: biochemical; settings: for inhibition at 10 µM: inhibitor 10 μM, read-out: APN @ 10 μM (percent inhibition); for IC50: dose response, 3x dilutions from 100 μM
T1 construct: purchased R&D Systems
Experimental: Single concentration studies at 10 μM: Aminopeptidase N assays were performed as described previously. Aminopeptidase N was purchased from R&D Systems. Amino-4-methylcoumarin (Ala-AMC) was purchased from Bachem. Briefly, 0.1 μg/μL APN was incubated with 1 μL of 1 mM inhibitor in 50 mM Tris buffer, pH 7.5, in 100 μL volume in a black 384-well plate in duplicate. The reaction was started with the addition of Ala-AMC substrate at a final concentration of 100 μM. The cleavage accumulation AMC was measured by exciting at 380 nm and reading the fluorescence at 460 nm on a Molecular Devices SpectraMax i3 plate reader for 20 min at room temperature. Percent inhibition is calculated in GraphPad Prism software using slopes in the linear range for each inhibitor at 10 μM.
Dose-Response Studies for APN: Aminopeptidase N enzyme assays were performed as described previously.^26 Briefly, 0.1 μg/μL APN was incubated with 1 μL inhibitor in 50 mM Tris buffer, pH 7.5, in 50 μL volume in a black 384-well plate in duplicate. Compounds were tested at 3× dilutions from 100 μM final concentration. The reaction was started with the addition of Ala-AMC substrate at a final concentration of 100 μM. The accumulation of AMC was measured by exciting at 380 nm and reading the fluorescence at 460 nm on a Molecular Devices SpectraMax i3 plate reader for 30 min at room temperature. Steady state velocities were used to determine IC50 values by fitting the velocities vs. inhibitor concentration to the sigmoidal concentration-response curve (variable slope) using GraphPad Prism.

Neprilysin (NEP) = molecular target: T2, Neprilysin (NEP) (Homo sapiens, UniProt P08473); assay: Neprilysin inhibition assay (Mca-[…](Dpn) FRET substrate); type: biochemical; settings: for IC50: dose response, 3x dilutions from 100 μM; for inhibition at 10 µM: inhibitor 10 μM, read-out: NEP @ 10 μM (percent inhibition)
T2 construct: purchased Enzo Life Sciences
Experimental: Single concentration studies at 10 μM: Neprilysin inhibition assays were performed as described previously. The substrate Mca-[…](Dpn) and endopeptidase NEP were purchased from Enzo Life Sciences. […] Plate was mixed with a plate shaker at 1500 rpm for 30 seconds. The reaction was started with the addition of 6 μM of the FRET substrate and mixed for another 30 seconds at 1500 rpm. Mca fluorescence is quenched by Dpn until cleavage at Phe by NEP. The accumulation of the Mca was measured by exciting at 320 nm and reading the fluorescence at 405 nm on a Molecular Devices M5e plate reader for 40 minutes at room temperature. Percent inhibition is calculated in GraphPad Prism software using slopes in the linear range for each inhibitor at 10 μM.
Dose-Response Studies for NEP: Neprilysin inhibition assays were performed as described previously. The substrate Mca-[…](Dpn) and endopeptidase NEP were purchased from Enzo Life Sciences. Briefly, 0.5 nM NEP was incubated with 0.5 μL inhibitor. Compounds were tested at 3× dilutions from 100 μM final concentration in 50 mM HEPES pH 6.5 in 50 μL total volume in a black 384-well plate. Plate was mixed with a plate shaker at 1500 rpm for 30 seconds. The reaction was started with the addition of 6 μM of the FRET substrate and mixed for another 30 seconds at 1500 rpm. Mca fluorescence is quenched by Dpn until cleavage at Phe by NEP. The accumulation of the Mca was measured by exciting at 320 nm and reading the fluorescence at 405 nm on a Molecular Devices M5e plate reader for 40 minutes at room temperature. Steady state velocities were used to determine IC50 values by fitting the velocities vs. inhibitor concentration to the sigmoidal concentration-response curve (variable slope) using GraphPad Prism.

mice [2] = assay: Co-administration of opioid antagonist naloxone in hot-plate and tail-flick assays; type: in vivo, mouse; settings: naloxone s.c. 5 mg/Kg or i.c.v. 5 μg per mouse
Experimental: Naloxone dissolved in saline was either administered subcutaneously (s.c.; dosage: 5 mg/Kg) via an injection to the interscapular skin, or it was given intracerebroventricularly (5 μg per mouse).
Naloxone is a broad-spectrum opioid receptor antagonist. It is known to interact with, mu- (μ-), delta- (δ-), and kappa- (κ-) opioid receptors, with highest affinity for the μ receptors. […] Naloxone dissolved in saline was delivered subcutaneously (s.c.) via an injection to the interscapular skin.
5 mg/Kg naloxone dissolved in saline was administered subcutaneously (s.c.) via an injection to the interscapular skin. Analgesic efficacy for various time-points was determined in hot-plate and tail-flick assays as detailed above.

T2 sequence (P08473 whole entry, species assumed): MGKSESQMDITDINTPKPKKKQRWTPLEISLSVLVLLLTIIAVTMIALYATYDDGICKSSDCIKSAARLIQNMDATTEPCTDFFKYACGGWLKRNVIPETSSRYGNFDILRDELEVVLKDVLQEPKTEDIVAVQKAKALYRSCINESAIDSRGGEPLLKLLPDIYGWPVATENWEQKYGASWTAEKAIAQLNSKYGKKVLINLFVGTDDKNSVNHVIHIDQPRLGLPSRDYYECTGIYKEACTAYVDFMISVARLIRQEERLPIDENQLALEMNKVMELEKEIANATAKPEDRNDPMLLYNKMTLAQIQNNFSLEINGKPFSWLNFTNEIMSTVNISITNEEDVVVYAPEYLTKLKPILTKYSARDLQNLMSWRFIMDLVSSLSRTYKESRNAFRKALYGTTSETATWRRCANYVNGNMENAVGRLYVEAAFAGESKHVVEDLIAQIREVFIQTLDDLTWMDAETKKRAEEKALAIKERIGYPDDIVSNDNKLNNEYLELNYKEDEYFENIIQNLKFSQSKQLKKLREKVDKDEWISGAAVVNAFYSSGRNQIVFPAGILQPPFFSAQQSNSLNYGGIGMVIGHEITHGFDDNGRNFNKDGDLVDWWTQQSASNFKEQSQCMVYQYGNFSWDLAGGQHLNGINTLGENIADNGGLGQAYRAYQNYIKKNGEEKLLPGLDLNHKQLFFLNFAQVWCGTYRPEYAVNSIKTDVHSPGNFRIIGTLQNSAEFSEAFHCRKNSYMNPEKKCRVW
T1 sequence (P15144 whole entry): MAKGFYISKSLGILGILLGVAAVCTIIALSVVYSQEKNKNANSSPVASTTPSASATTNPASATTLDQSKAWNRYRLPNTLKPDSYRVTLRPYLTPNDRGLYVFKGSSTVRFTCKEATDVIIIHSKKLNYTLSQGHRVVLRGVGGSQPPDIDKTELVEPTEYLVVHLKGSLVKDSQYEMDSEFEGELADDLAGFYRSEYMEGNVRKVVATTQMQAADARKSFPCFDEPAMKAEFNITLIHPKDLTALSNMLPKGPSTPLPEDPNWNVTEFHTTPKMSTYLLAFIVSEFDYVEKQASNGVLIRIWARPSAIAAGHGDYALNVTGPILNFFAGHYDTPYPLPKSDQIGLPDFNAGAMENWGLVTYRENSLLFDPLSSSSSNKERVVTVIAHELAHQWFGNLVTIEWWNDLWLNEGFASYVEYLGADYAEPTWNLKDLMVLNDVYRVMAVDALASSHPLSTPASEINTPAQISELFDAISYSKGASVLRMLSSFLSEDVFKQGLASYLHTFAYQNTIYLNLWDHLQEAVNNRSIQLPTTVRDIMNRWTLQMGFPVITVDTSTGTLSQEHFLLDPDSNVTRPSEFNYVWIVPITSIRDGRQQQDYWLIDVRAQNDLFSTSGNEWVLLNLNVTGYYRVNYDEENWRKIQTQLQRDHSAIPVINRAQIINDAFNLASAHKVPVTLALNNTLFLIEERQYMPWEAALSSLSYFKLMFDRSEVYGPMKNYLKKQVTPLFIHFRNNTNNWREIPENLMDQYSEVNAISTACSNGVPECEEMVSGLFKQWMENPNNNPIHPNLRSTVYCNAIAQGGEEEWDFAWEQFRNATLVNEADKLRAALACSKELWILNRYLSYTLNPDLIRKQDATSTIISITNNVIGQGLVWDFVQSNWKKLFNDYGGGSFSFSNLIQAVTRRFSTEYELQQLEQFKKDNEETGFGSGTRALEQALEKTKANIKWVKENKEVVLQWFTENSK

Structure (SMILES) | activity against APN (in words) (Aminopeptidase N (APN)) | inhibition at 10 µM (Aminopeptidase N (APN)) [%] | activity against NEP (in words) (Neprilysin (NEP)) | IC50 (Neprilysin (NEP)) [µM] | inhibition at 10 µM (Neprilysin (NEP)) [%] | IC50 (Aminopeptidase N (APN)) | further results
CN1CC[C@]23c4c5ccc(O)c4O[C@H]2[C@@H](O)C=C[C@H]3[C@H]1C5 [Morphine] | – | – | – | – | – | – | Dose Reduction Index (DRI) Morphine (mice [1]; 15 min): 4.47; Dose Reduction Index (DRI) Morphine (mice [1]; 30 min): 1.96; Dose Reduction Index (DRI) Morphine (mice [1]; 45 min): 2.43; Dose Reduction Index (DRI) Morphine (mice [1]; 60 min): 17.0; Dose Reduction Index (DRI) Morphine (mice [1]; 60 min, listed as morphine): 17; ED50 (mice [1]; 0.25 h, read-out: Morphine ED50 (±SEM)): 6.29 ± 12.7 mg/kg; ED50 (mice [1]; 0.5 h, read-out: Morphine ED50 (±SEM)): 3.52 ± 7.2 mg/kg; ED50 (mice [1]; 0.75 h, read-out: Morphine ED50 (±SEM)): 3.87 ± 2.04 mg/kg; ED50 (mice [1]; 1 h, read-out: ED50, given alone): 2.5 to 3 mg/kg; ED50 (mice [1]; 1 h, read-out: Morphine ED50 (±SEM)): 30 ± 204 mg/kg
CC(C)C[C@H](NC(=O)[C@@H](O)[C@H](N)Cc1ccccc1)C(=O)O [Bestatin] | inhibiting only APN | 77.6 | no activity against NEP | > 100 | 0 | – | –
C=CCN1CC[C@]23c4c5ccc(O)c4O[C@H]2C(=O)CC[C@@]3(O)[C@H]1C5 [Naloxone] | – | – | – | – | – | – | effect on latency, naloxone only groups (mice [2]): no effect on latency
O=C(O)CNC(=O)C(CS)Cc1ccccc1 (centres unmarked) [Thiorphan] | no activity against APN | 0 | inhibited only NEP | – | 90 | > 100 µM | –
CNC(=O)[C@H](Cc1ccccc1)NC(=O)[C@H](CC(C)C)[C@H](CSc1cccs1)C(=O)NO [Batimastat] | inhibit both APN and NEP | – | inhibit both APN and NEP | 4.48 | 60 | 0.21 µM and 0.212 µM | –
